Data from PubChem BioAssay AID1963423 (Molecular Pharmacology Branch, DTP, NCI, 2024).

System: 439559-082-T-J2-PDC complex spheroid growth
Assay: Anticancer human tumor 439559-082-T-J2-PDC patient-derived colon adenocarcinoma cell line growth inhibition [Asc]
Conditions: for IC50: curve of first compound; for viability, T/C: stronger effect = lower value
Description: Multicellular complex tumor spheroid response to apoptosis pathway targeting inhibitors Alrizomadlin, Pelcitoclax, and Dasminapant in combination with a variety of drugs and investigational agents in selected tumor cell lines
The MDM2 inhibitor alrizomadlin, the Bcl-2/Bcl-xL inhibitor pelcitoclax, and the IAPs inhibitor dasminapant were evaluated both individually and in combination with standard of care and investigational anticancer small molecules within a complex spheroid model of solid tumors. . Complex spheroids include a stromal component modeled by human endothelial cells (HUVEC) and fibroblasts modeled by human mesenchymal stem cells (MSCs). The concentration ranges selected for each drug and investigational agent were based upon clinically achievable concentrations if the clinical Cmax of the agent was known.
Compounds. The drugs and investigational agents: alrizomadlin (APG-115; NSC831270), pelcitoclax (APG-1252; NSC835773), dasminapant (APG-1387;NSC834197), TAK-243 (NSC785004), copanlisib (NSC809693), olaparib (NSC753686), talazoparib (NSC767125), cobimetinib (NSC 768068), eltanexor (KPT-8602, NSC 794443), abemaciclib (NSC 768073), sotorasib (NSC818433), adagrasib (NSC 831453), MRTX-1133 (NSC 836407), Iadademestat (ORY1001, NSC 806812), and RMC-4630 (NSC839698), were obtained from the NCI Developmental Therapeutics Program Chemical Repository. The FDA-approved anticancer drug set is available from the Developmental Therapeutics Program at https://dtp.cancer.gov/organization/dscb/obtaining/available plates.htm. […] The stock solutions were prepared in dimethyl sulfoxide (DMSO, Sigma-Aldrich, St. Louis, MO, cat. D2650) at 800-fold the tested concentration and stored at -70 degrees C prior to their use. All drugs and investigational agents were tested over a range starting from a high concentration at or near the clinical Cmax and decreasing in half-log increments. If the clinical Cmax for an agent had not been determined, the highest concentration tested was 10 microM.
The patient-derived cancer (PDC) cell lines include five colon adenocarcinomas: 186277-243-T-J2-PDC, 616215-338-R-J1-PDC, 439559-082-T-J2-PDC, 463943-066-T-J2-PDC, and 519858-162-T-J1-PDC; three pancreatic carcinomas: 323965-272-R-J2-PDC, 521955-158-R6-J3-PDC, and 521955-158-R2-J5-PDC; two uterine sarcomas: 327498-152-R-J2-PDC and 993429-296-R-J1-PDC; two rhabdomyosarcomas: 755483-174-R-J1-PDC and 772245-204-R-J1-PDC; two soft tissue sarcomas: 126254-015-R-J1-PDC and 494315-158-R-J1-PDC; two malignant fibrous histiocytomas: 317291-083-R-J1-PDC and 596521-263-R-J1-PDC; two breast carcinomas: 171881-019-R-J1-PDC and 885512-296-R-J2-PDC; and one ovarian carcinoma: 6556581-035-R-J-PDC were obtained from the NCI PDMR, (https://pdmr.cancer.gov). The established cell lines HSSY-2 synovial sarcoma (RRID:CVCL 8719), SYO-1 synovial sarcoma (RRID:CVCL_7146), MPNST malignant peripheral neural sheath tumor were obtained from the Sloan Kettering Institute. The following established cell lines were purchased from the American Type Culture Collection (ATCC, Manassas, VA), Sor the received from the NCI repository:, PANC-1 pancreatic carcinoma (CRL-1469, RRID:CVCL_0480), OVCAR-5 ovarian carcinoma (RRID:CVCL_1628), OVCAR-8 ovarian carcinoma (RRID:CVCL_1629), , MCF-7 breast carcinoma (CRL-12584, RRID:CVCL_0031), MDA-MB-231 breast carcinoma (CRL-12532, RRID:CVCL_0062), NCI-H1876 small cell lung carcinoma (CRL-5902, RRID:CVCL_1503), NCI-H510A small cell lung carcinoma (HTB-184, RRID:CVCL_1565), NCI-H1417 (CRL-5869, RRID:CVCL_1469), and NCI-H196 small cell lung carcinoma (CRL-5823, RRID:CVCL_1509). Dr. Peter Houghton (Greehey Children's Cancer Research Institute, University of Texas Health Science Center, San Antonio, TX) provided Rh-18 rhabdomyosarcoma (RRID:CVCL_1659). Pooled donor human umbilical vein endothelial cells (HUVEC, Lonza, cat. CC-2519) and human mesenchymal stem cells (hMSC, Lonza, cat. PT-2501) were purchased from Lonza (Walkersville, MD).
Cell Culture. […]

[1] = second compound 0.03 µM, first compound 0.00316 µM
[2] = second compound 0.03 µM, first compound 0.01 µM
[3] = second compound 0.03 µM, first compound 0.0316 µM
[4] = second compound 0.03 µM, first compound 0.1 µM
[5] = second compound 0.0949 µM, first compound 0.00316 µM
[6] = second compound 0.0949 µM, first compound 0.01 µM
[7] = second compound 0.0949 µM, first compound 0.0316 µM
[8] = second compound 0.0949 µM, first compound 0.1 µM
[9] = second compound 0.3 µM, first compound 0.00316 µM
[10] = second compound 0.3 µM, first compound 0.01 µM
[11] = second compound 0.3 µM, first compound 0.0316 µM
[12] = second compound 0.3 µM, first compound 0.1 µM
[13] = second compound 0.949 µM, first compound 0.00316 µM
[14] = second compound 0.949 µM, first compound 0.01 µM
[15] = second compound 0.949 µM, first compound 0.0316 µM
[16] = second compound 0.949 µM, first compound 0.1 µM
[17] = second compound 3 µM, first compound 0.00316 µM
[18] = second compound 3 µM, first compound 0.01 µM
[19] = second compound 3 µM, first compound 0.0316 µM
[20] = second compound 3 µM, first compound 0.1 µM
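Note: spheroids exposed to agents for 7 days starting day 3 after seeding.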
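Throughout, for viability, T/C: percent of DMSO vehicle control viability with 100% = vehicle.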

With Cn1ncnc1[C@H]1c2n[nH]c(=O)c3cc(F)cc(c23)N[C@@H]1c1ccc(F)cc1 + CCN1C(C(=O)NC23CCC(C(=O)O)(CC2)CC3)C(c2cccc(Cl)c2F)C2(C(=O)Nc3cc(Cl)ccc32)C12CCCCC2 the IC50 (second compound 0.03 µM) was over 100 nM, the IC50 (second compound 0.0949 µM) was over 100 nM and the IC50 (second compound 0.3 µM) was over 100 nM. The IC50 (second compound 0.949 µM) was over 100 nM, the IC50 (second compound 3 µM) was over 100 nM and the viability, T/C (second compound 0.03 µM, first compound 0.000316 µM) was 106%. It also gave a viability, T/C (second compound 0.03 µM, first compound 0.001 µM) of 109%, a viability, T/C [1] of 103% and a viability, T/C [2] of 100%. It also gave a viability, T/C [3] of 101%, a viability, T/C [4] of 95.3% and a viability, T/C (second compound 0.0949 µM, first compound 0.000316 µM) of 103%. The viability, T/C (second compound 0.0949 µM, first compound 0.001 µM) was 104%, the viability, T/C [5] was 106% and the viability, T/C [6] was 83.4%. The viability, T/C [7] was 94.6%, the viability, T/C [8] was 96.6% and the viability, T/C (second compound 0.3 µM, first compound 0.000316 µM) was 98.8%. The viability, T/C (second compound 0.3 µM, first compound 0.001 µM) was 113%, the viability, T/C [9] was 109% and the viability, T/C [10] was 86.2%. It also gave a viability, T/C [11] of 96.2%, a viability, T/C [12] of 101% and a viability, T/C (second compound 0.949 µM, first compound 0.000316 µM) of 107%. For the same compound, the viability, T/C (second compound 0.949 µM, first compound 0.001 µM) was 111%, the viability, T/C [13] was 108% and the viability, T/C [14] was 99%. For the same compound, the viability, T/C [15] was 88.3%, the viability, T/C [16] was 103% and the viability, T/C (second compound 3 µM, first compound 0.000316 µM) was 89%. The viability, T/C (second compound 3 µM, first compound 0.001 µM) was 94.7%, the viability, T/C [17] was 101% and the viability, T/C [18] was 86.6%. For the same compound, the viability, T/C [19] was 84.4% and the viability, T/C [20] was 91.6%.
O=C(c1ccc(F)c(F)c1Nc1ccc(I)cc1F)N1CC(O)([C@@H]2CCCCN2)C1 + CCN1C(C(=O)NC23CCC(C(=O)O)(CC2)CC3)C(c2cccc(Cl)c2F)C2(C(=O)Nc3cc(Cl)ccc32)C12CCCCC2 gave an IC50 (second compound 0.03 µM) of 223 nM, an IC50 (second compound 0.0949 µM) of 233 nM and an IC50 (second compound 0.3 µM) of 235 nM. It also gave an IC50 (second compound 0.949 µM) of 172 nM, an IC50 (second compound 3 µM) of 97.6 nM and a viability, T/C [1] of 103%. For the same compound, the viability, T/C [2] was 101%, the viability, T/C [3] was 83.8% and the viability, T/C [4] was 61.6%. The viability, T/C (second compound 0.03 µM, first compound 0.316 µM) was 46.9%, the viability, T/C (second compound 0.03 µM, first compound 1 µM) was 22.5% and the viability, T/C [5] was 111%. It also gave a viability, T/C [6] of 106%, a viability, T/C [7] of 84.8% and a viability, T/C [8] of 58.2%. It also gave a viability, T/C (second compound 0.0949 µM, first compound 0.316 µM) of 52.6%, a viability, T/C (second compound 0.0949 µM, first compound 1 µM) of 16.3% and a viability, T/C [9] of 98.7%. The viability, T/C [10] was 110%, the viability, T/C [11] was 91.7% and the viability, T/C [12] was 64.3%. It also gave a viability, T/C (second compound 0.3 µM, first compound 0.316 µM) of 47.2%, a viability, T/C (second compound 0.3 µM, first compound 1 µM) of 8.43% and a viability, T/C [13] of 111%. The viability, T/C [14] was 93.5%, the viability, T/C [15] was 88.4% and the viability, T/C [16] was 54.5%. It also gave a viability, T/C (second compound 0.949 µM, first compound 0.316 µM) of 41.1%, a viability, T/C (second compound 0.949 µM, first compound 1 µM) of 16.2% and a viability, T/C [17] of 96.8%. The viability, T/C [18] was 81.7%, the viability, T/C [19] was 78.1% and the viability, T/C [20] was 47%. For the same compound, the viability, T/C (second compound 3 µM, first compound 0.316 µM) was 27% and the viability, T/C (second compound 3 µM, first compound 1 µM) was 12.2%.
